The subject of one assay is melanoma B-16 cells. Description: Malignant melanoma B-16 cells in vitro, cell count by Coulter Counter. Format: cell-based. Conditions: Mus musculus; for activity at 300 µg/mL / activity at 200 µg/mL / activity at 50 µg/mL: B16, 48 h; for activity at 300 µg/mL: 300 ug/ml; for activity at 500 µg/mL / activity at 5000 µg/mL: B16, 20 hours incubation, cells counted at 48 hours; for activity at 500 µg/mL: read-out: Percentage of controll cell growth when tested in an amount of 5 x 10^2 µg/ml; for activity at 5000 µg/mL: read-out: Percentage of controll cell growth when tested in an amount of 5 x 10^3 µg/ml; for activity at 200 µg/mL: 200 ug/ml; for activity at 50 µg/mL: 50 ug/ml. Here is the method:
Cells of malignant melanomas B-16 grow as a monolayer. The doubling time of this type of cells in a cell--culture is 12 to 16 hours. For this experiment 6 multi-well tissue culture plates having a flat bottom with a surface area of 6 cm^2 appeared to be suitable and have been used.
On day 0 a quantity of melanoma B-16 cells were brought on the cell-culture plates.
The test compounds were sonicated and then incubated without cells for 3 hours at 37°C.
Then the compound to be tested was administered to the plates with melanoma B-16 cells in the desired quantity (each test was done in triplicate). Thereafter the plates were incubated in a C02-incubator for 20 hours at 37°C. Then the incubation was stopped by removing the culture medium containing the test compound, the cells were washed twice, and fresh culture medium was added.
48 Hours after starting the incubation step the number of cells on each plate was measured by means of a microcell Coulter Counter. The results so obtained have been expressed as "percentage of controll cell growth".
In the above experiment the compounds to be tested have been used in the form of a suspension. Since it is not quite clear how much of the active compounds is dissolved, the above results cannot be compared very well.
Therefore a number of compounds has been dissolved in ethanol.

In the next assay the test system is B-16 malignant melanoma. The assay is described as follows: B-16 malignant melanoma in C57BL/6 mice, tumor growth after intraperitoneal injection. Format: in vivo. The procedure: The compounds were tested by intraperitoneal injections of suspensions of the compounds in an aqueous solution of polyvinyl pyrrolidone.
Mice with malignant melanomas were injected with 20 mg or 40 mg diflubenzuron in suspension or with the suspension medium (blank).
Finally compound 2) was given in doses of 20 mg each on days 0, 1 and 2.
Animals with growing tumors were treated with 100 mg of diflubenzuron alone (suspended in an aqueous solution of polyvinylpyrrolidone) or in combination with a metabolic inhibitor or a metabolic inducer according to the schedule given in Table XI.

[1] abbreviates: dissolved in ethanol, read-out: Percentage of controll cell growth (solution).
The mark [2] stands for this setting: suspension, read-out: Percentage of controll cell growth (suspension).
Where [3] appears, read: 100 mg total, 20 mg each on day 0, 1, 2, 3 and 4.
Setting [4] is: 20 mg each on days 0, 1, 2, 3 and 4.
Setting [5] is: 10 mg each on days 0, 1, 2, 3 and 4.

Like-named read-outs stand apart in the source and are kept apart here.

For the molecule `O=C(NC(=O)c1c(F)cccc1F)Nc1ccc(Cl)c(O)c1` [Compound 8, 1-(2,6-difluorobenzoyl)-3-(4-chloro-3-hydroxyphenyl)urea], the activity at 300 µg/mL with melanoma B-16 cells (setting [1]) turned out to be 0%. Moreover, the activity at 300 µg/mL in the assay with melanoma B-16 cells (setting [2]) is 63%. In the assay with melanoma B-16 cells (suspension), the activity at 500 µg/mL came to 51% and the activity at 5000 µg/mL came out at 53%. In the assay on B-16 malignant melanoma (setting [3]), the “% change in tumor mass day 1” value was 39.5 (12) %, the “% change in tumor mass day 2” value is listed as 52.4 (12) %, the “% change in tumor mass day 3” value is reported as 91.2 (12) % and the “% change in tumor mass day 4” value is reported as 149 (12) %. In addition, in the assay with B-16 malignant melanoma (setting [3]), the “% change in tumor mass day 5” value was 223 (12) %, the “% change in tumor mass on day 11” value is 930 (12) % and the “antitumor effect compared with parent compound diflubenzuron (in words)” value is reported as “not active at all”.

In the case of `O=C(NC(=O)c1c(F)cccc1F)Nc1cc(Cl)c(Oc2ncc(C(F)(F)F)cc2Cl)c(Cl)c1` [Compound 2, 1-(2,6-difluorobenzoyl)-3-[3,5-dichloro-4-(3-chloro-5--trifluoromethyl-2-pyridyloxy)phenyl]urea], the activity at 200 µg/mL in the assay with melanoma B-16 cells (setting [1]) stood at 72%; with melanoma B-16 cells (setting [2]), 114%. The “Mean tumor Mass Day 1” value with B-16 malignant melanoma (20 mg each on days 0, 1 and 2) worked out at 191.

For the molecule `O=C(NC(=O)c1ccccc1)Nc1ccc(Cl)cc1` [Compound 19, 1-benzoyl-3-(4-chlorophenyl)urea], in the assay with B-16 malignant melanoma (setting [4]), the “Mean tumor Mass Day 1” value is listed as 159.

In the case of `O=C(NC(=O)c1c(Cl)cccc1Cl)Nc1ccc(Cl)cc1` [Compound 17, 1-(2,6-dichlorobenzoyl)-3-(4-chlorophenyl)urea], in the assay on B-16 malignant melanoma (setting [5]), the “Mean tumor Mass Day 1” value was found to be 347.

Regarding `O=C(NC(=O)c1c(Cl)cccc1Cl)Nc1ccc(C(F)(F)F)cc1` [Compound 18, 1-(2,6-dichlorobenzoyl)-3-(4-trifluoromethylphenyl)urea], the “Mean tumor Mass Day 1” value in the assay on B-16 malignant melanoma (setting [5]) came out at 314.

For the molecule `O=C(NC(=O)c1ccccc1Cl)Nc1ccc(C(F)(F)F)cc1O` [Compound 21, 1-(2-chlorobenzoyl)-3-(2-hydroxy-4-trifluoromethylphenyl)urea], the activity at 300 µg/mL in the assay on melanoma B-16 cells (setting [1]) was found to be 43%. Moreover, in the assay on melanoma B-16 cells (setting [2]), the activity at 300 µg/mL is 50%. Also, in the assay on melanoma B-16 cells (suspension), the activity at 500 µg/mL amounted to 101% and the activity at 5000 µg/mL was 71%.

Take `O=C(NC(=O)c1c(F)cccc1F)Nc1ccc(Cl)c(Cl)c1` [Compound 15, 1-(2,6-difluorobenzoyl)-3-(3,4-dichlorophenyl)urea]: in the assay with B-16 malignant melanoma (setting [4]), the “Mean tumor Mass Day 1” value stood at 151.

On to `O=C(NC(=O)c1ccccc1Cl)Nc1ccc(OC(F)(F)F)cc1` [Compound 6, l-(2-chlorobenzoyl)-3-(4-trifluoromethoxyphenyl)urea], for which the activity at 300 µg/mL came out at 95% in the assay on melanoma B-16 cells (setting [1]) and 88% in the assay with melanoma B-16 cells (setting [2]). Further, the “Mean tumor Mass Day 1” value in the assay on B-16 malignant melanoma (setting [4]) amounted to 229.

Take `O=C(NC(=O)c1c(F)cccc1F)Nc1ccc(Oc2ccc(Cl)cc2)c(Cl)c1` [Compound 3, 1-(2,6-difluorobenzoyl)-3-[3-chloro-4-(4-chlorophenoxy)phenyl]urea]: in the assay with melanoma B-16 cells (suspension), the activity at 500 µg/mL is 33% and the activity at 5000 µg/mL came to 8%. For the same molecule, the “Mean tumor Mass Day 1” value in the assay with B-16 malignant melanoma (setting [4]) is on record as 127.

As for `O=C(NC(=O)c1c(F)cccc1F)Nc1ccc(Cl)cc1O` [Compound 7], in the assay on melanoma B-16 cells (setting [1]), the activity at 50 µg/mL was 39% and the activity at 300 µg/mL is 0%. Further, in the assay with melanoma B-16 cells (setting [2]), the activity at 50 µg/mL is 103% and the activity at 300 µg/mL was found to be 103%. Also, in the assay on B-16 malignant melanoma (setting [3]), the “% change in tumor mass day 1” value is -23.4 (12) %, the “% change in tumor mass day 2” value was -17.4 (12) %, the “% change in tumor mass day 3” value is reported as 25.1 (12) % and the “% change in tumor mass day 4” value is 74.7 (10) %. For the same molecule, in the assay on B-16 malignant melanoma (setting [3]), the “% change in tumor mass day 5” value is reported as 127 (10) %, the “% change in tumor mass on day 11” value is 699 (10) % and the “antitumor effect compared with parent compound diflubenzuron (in words)” value was “more effective”.

Take `O=C(NC(=O)c1c(F)cccc1F)Nc1ccc(C2CCCCC2)cc1` [Compound 13, l-(2,6-difluorobenzoyl)-3-(4-cyclohexylphenyl)urea]: the “Mean tumor Mass Day 1” value with B-16 malignant melanoma (setting [5]) was 205.

Regarding `N#Cc1ccc(NC(=O)NC(=O)c2c(F)cccc2F)cc1` [Compound 10, l-(2,6-difluorobenzoyl)-3-(4-cyanophenyl)urea], the “Mean tumor Mass Day 1” value with B-16 malignant melanoma (setting [4]) is recorded as 183.

With `Cc1ccc2cc3c(ccc4ccccc43)c3c2c1CC3` [3-methylcholanthrene, 3-Methylcholanthrene, reference compound], in the assay with B-16 malignant melanoma (mouse, in vivo), the “% change in tumor mass day 1” value is recorded as 122 (6) %, the “% change in tumor mass day 2” value was 223 (6) %, the “% change in tumor mass day 3” value is 364 (6) % and the “% change in tumor mass day 4” value was 417 (6) %. The “% change in tumor mass day 5” value in the assay with B-16 malignant melanoma (mouse, in vivo) was 363 (6) %.

Take `O=C(NC(=O)c1ccccc1Cl)Nc1ccc(OC(F)(F)F)cc1O` [Compound 9, 1-(2-chlorobenzoyl)-3-(2-hydroxy-4-trifluoromethoxyphenyl)urea]: in the assay on melanoma B-16 cells (suspension), the activity at 500 µg/mL was 100% and the activity at 5000 µg/mL came to 70%.

With `O=C(NC(=O)c1c(F)cccc1F)Nc1ccc(C(F)(F)F)cc1O` [Compound 20, 1-(2,6-difluorobenzoyl)-3-(2-hydroxy-4-trifluoromethylphenyl)urea], in the assay with melanoma B-16 cells (suspension), the activity at 500 µg/mL is 91% and the activity at 5000 µg/mL is 81%.

As to `O=C(NC(=O)c1c(F)cccc1F)Nc1ccc(O)cc1` [Compound 12, 1-(2,6-difluorobenzoyl)-3-(4 :aydroxyphenyl)urea], the “Mean tumor Mass Day 1” value with B-16 malignant melanoma (setting [4]) was found to be 148.

As for `O=C(NC(=O)c1c(F)cccc1F)Nc1ccc(OC(F)(F)C(F)C(F)(F)F)cc1` (stereo not shown) [Compound 11], the “Mean tumor Mass Day 1” value in the assay with B-16 malignant melanoma (setting [4]) turned out to be 193.

On to `O=C(NC(=O)c1ccccc1Cl)Nc1ccc(Cl)cc1` [Compound 5, 1-(2-chlorobenzoyl)-3-(4-chlorophenyl)urea], for which, in the assay with melanoma B-16 cells (suspension), the activity at 500 µg/mL is 98% and the activity at 5000 µg/mL stood at 86%. The “Mean tumor Mass Day 1” value in the assay with B-16 malignant melanoma (setting [4]) is 198.

Source of the values: patent publication EP0107214A2, “Pharmaceutical compositions containing benzoyl-phenyl ureas with anti-tumour activity” (DUPHAR INTERNATIONAL RESEARCH B.V, priority 1982, dated 1984).
